According to ChEMBL document CHEMBL6087393, “Sensitive quantification of fibroblast activation protein and high-throughput screening for inhibition by FDA-approved compounds” (Eur J Med Chem, 2024):

What was measured:
Prolyl endopeptidase FAP = biological target: T1, Prolyl endopeptidase FAP (Homo sapiens, UniProt Q12884); assay: Inhibition of recombinant human FAP extracted from S2 cells using fluorogenic FAP as specific substrate measured after 10 mins incubation by 7-amino-4-methylcoumarin in assay
T1 sequence (Q12884 whole entry): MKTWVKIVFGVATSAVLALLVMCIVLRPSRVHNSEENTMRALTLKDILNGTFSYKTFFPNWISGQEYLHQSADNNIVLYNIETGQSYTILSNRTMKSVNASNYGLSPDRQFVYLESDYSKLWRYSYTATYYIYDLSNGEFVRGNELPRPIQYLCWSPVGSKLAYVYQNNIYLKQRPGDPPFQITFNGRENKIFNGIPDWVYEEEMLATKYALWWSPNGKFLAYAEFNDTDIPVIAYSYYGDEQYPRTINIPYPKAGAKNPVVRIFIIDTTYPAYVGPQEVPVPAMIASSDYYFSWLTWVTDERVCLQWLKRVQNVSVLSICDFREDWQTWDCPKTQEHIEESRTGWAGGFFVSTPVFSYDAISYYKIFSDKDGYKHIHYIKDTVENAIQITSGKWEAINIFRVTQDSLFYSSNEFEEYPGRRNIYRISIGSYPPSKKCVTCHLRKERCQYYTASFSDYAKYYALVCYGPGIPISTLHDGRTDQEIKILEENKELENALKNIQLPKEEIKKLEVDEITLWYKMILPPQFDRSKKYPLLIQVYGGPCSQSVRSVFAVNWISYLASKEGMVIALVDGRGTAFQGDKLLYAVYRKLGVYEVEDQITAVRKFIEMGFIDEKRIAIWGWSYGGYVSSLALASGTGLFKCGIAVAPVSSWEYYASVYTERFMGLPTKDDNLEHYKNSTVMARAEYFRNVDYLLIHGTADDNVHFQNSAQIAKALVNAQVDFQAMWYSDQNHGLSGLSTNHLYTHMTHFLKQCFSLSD

clinical = conditions: human

Question: Which IC50 (Prolyl endopeptidase FAP) does the source give for `Nc1ncnc2c1ncn2CCOCP(=O)(O)O` [ADEFOVIR] here?
Answer: > 100 µM

Question: For `CC#CCn1c(N2CCC[C@@H](N)C2)nc2c1c(=O)n(Cc1nc(C)c3ccccc3n1)c(=O)n2C` [LINAGLIPTIN], which Cmax (clinical) is on record?
Answer: 12 nM

Question: Which Cmax (clinical) does the source give for `Cc1cc2ncc(C(=O)NCC(C)(C)NCC(=O)N3CCC[C@H]3C#N)cn2n1` [ANAGLIPTIN] here?
Answer: 1200 nM

Question: With `C[C@H](Cn1cnc2c(N)ncnc21)OCP(=O)(O)O` [TENOFOVIR ANHYDROUS] as the compound, how does the IC50 (Prolyl endopeptidase FAP) read?
Answer: > 100 µM
